These results are taken from the METLIN SMRT retention time set (Domingo-Almenara et al. 2019).

Each structure is given as a SMILES string.

This series is described as follows: gradient 5% acetonitrile 3 min, to 50% in 2 min, to 85% in 15 min, held 3 min, 100 µL/min. Conditions: column: Zorbax Extend-C18 2.1 x 50 mm; eluents: water / acetonitrile, 0.1% formic acid. In short, it runs like this:
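Pure standards were run in mixtures of ~100 molecules by HPLC coupled to a quadrupole time-of-flight mass spectrometer. The column was a Zorbax Extend-C18 (2.1 × 50 mm, 1.8 μm) at 100 μL/min, with water and acetonitrile each containing 0.1% formic acid, in positive and negative ionization mode. Dead and dwell volumes were 40 μL and 900 μL. Retention time was taken from computationally picked adduct peaks, each manually inspected, with data collected over 3 months.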
Molecule `CC(C)NC(=O)C1CCCN(c2nc3ncn(CC(=O)NCc4cccs4)c(=O)c3s2)C1` (stereo not given) displayed an RP-LC retention time of 660 s.

`O=C(NCc1ccc(F)cc1)C1CCN(c2cncnc2N2CCCC2)CC1` returned an RP-LC retention time of 659 s.

The molecule `CCc1ccc(N2CC(c3noc(-c4cc(OC)cc(OC)c4)n3)CC2=O)cc1` (stereo not given) registered an RP-LC retention time of 1100 s. For `CN(C)S(=O)(=O)Nc1cccc(Br)c1`, the RP-LC retention time amounted to 898 s. `O=C(c1ccccc1)N1CCN(C(=O)c2nnn3c2COC(c2ccc(Cl)cc2)C3)CC1` (stereo not given) came in with an RP-LC retention time of 873 s. The value for `CCOC(=O)CNC(=O)NCc1cccn1Cc1cccc(F)c1` was 810 s.

Molecule `Cc1ccc(NC(=O)N2CCCC2c2nc(-c3ccc(F)cc3F)no2)cc1` (stereo not given) showed an RP-LC retention time of 972 s. Molecule `CCN(CC)C(=O)N1CC(c2nc(-c3ccncc3)nn2C)C1` displayed an RP-LC retention time of 566 s. On to `CCN1C(=O)C2(CCN(C(=O)c3cn(C)cn3)CC2)c2ccccc21`, for which the RP-LC retention time was determined as 630 s. `CCC(=O)N1CCc2cc(C(=O)NC3CCCC3)ccc21` displayed an RP-LC retention time of 744 s.

`CCCS(=O)(=O)N1CCc2ccc(NC(=O)c3ccno3)cc2C1` showed an RP-LC retention time of 716 s. `COc1ccc(Nc2nc(N3CCN(c4ncccn4)CC3)nc3c2C(=O)CC(C)(C)C3)cc1` displayed an RP-LC retention time of 1250 s.

With `O=C(Cc1cccc(F)c1)NC1(c2nc(-c3ccsc3)no2)CCCCC1`, the RP-LC retention time is 589 s. `Cc1ccccc1-c1noc(C2CCCN2C(=O)NC2CCCCC2)n1` (stereo not given) came in with an RP-LC retention time of 1020 s. In turn, `O=C(CSc1nnc(NC(=O)c2c(F)cccc2Cl)s1)c1ccccc1` yielded an RP-LC retention time of 888 s. Molecule `CCOc1ccc(-c2csc(Cc3nc(-c4cccc(Cl)c4)no3)n2)cc1` returned an RP-LC retention time of 1340 s.

On to `CCNC(=O)C1CCCN(c2nc3ncn(CC(=O)NC4CCCC4)c(=O)c3s2)C1` (stereo not given), for which the RP-LC retention time worked out at 637 s. The molecule `Cc1cc(C)n(-c2ccnc(N3CCc4ccccc4C3)n2)n1` registered an RP-LC retention time of 1150 s.

With `CCC(=O)Nc1cnc2c(c1)CCC2`, the RP-LC retention time is 491 s. The molecule `COc1cccc(S(=O)(=O)N2CCC(c3nc(C(=O)N(C)C)c(C)o3)CC2)c1` had an RP-LC retention time of 794 s.

In the case of `Cc1cc(F)ccc1NC(=O)c1n[nH]nc1Nc1ccc(F)cc1`, the RP-LC retention time was determined as 923 s. Molecule `CN(C)S(=O)(=O)c1cccc(-c2nnc(-c3ccc(Cl)cc3)o2)c1` returned an RP-LC retention time of 1000 s. `CCc1nn2c(CNS(=O)(=O)c3ccccc3C)c(-c3ccccc3)nc2s1` had an RP-LC retention time of 921 s.

In turn, `O=C(CCn1nnc2cc(-c3noc(COc4ccccc4)n3)ccc21)N1CCCC1` gave an RP-LC retention time of 862 s. Molecule `COc1ccc(CN2CCN(C(c3ccc(F)cc3)c3ccc(F)cc3)CC2)c(OC)c1OC` had an RP-LC retention time of 857 s. For `COC(=O)c1ccc(-c2nc3cnccn3c2NC2CCCC2)cc1`, the RP-LC retention time came out at 877 s. Then `COc1ccc(C2C(C(=O)NCCCN3CCOCC3)c3cc(OC)c(OC)cc3C(=O)N2C)cc1` (stereo not given), with 612 s; and `Cn1cccc1C(=O)C(=O)Nc1ccc2c(c1)OCCO2`, with 842 s; and `CCCCC(=O)Nc1ccc2c(c1)nc(CN1CCN(S(C)(=O)=O)CC1)n2CC`, with 635 s. The molecule `CCC(C)NC(=O)c1cc(COc2ccc(NC(=O)C(C)C)cc2)on1` (stereo not given) came in with an RP-LC retention time of 776 s. Regarding `CCCCN1CCC(N(C(=O)NCCc2ccccc2)C2CCOCC2)CC1`, the RP-LC retention time amounted to 671 s. Molecule `Cc1ccccc1OCC(=O)N1CCN(c2cc(C)n3c(C)nnc3n2)CC1` yielded an RP-LC retention time of 630 s.

`O=S(=O)(c1cccc2nsnc12)N1CCc2nc(-c3ccccc3)ncc2C1` came in with an RP-LC retention time of 1000 s. Turning to `CC(C)Oc1ccccc1CN1CCC2(CC1)CC(C)(O)CCO2` (stereo not given), the RP-LC retention time came out at 627 s. The molecule `CCOCCCNC(=O)c1ccc2c(c1)nc1n2CCCCC1` gave an RP-LC retention time of 588 s.

The molecule `COc1ccc(C(=O)Nc2ccc3c(c2)Sc2ncccc2C(=O)N3C)cc1OC` came in with an RP-LC retention time of 712 s. The value for `CCn1cc(-c2ccc(OC)cc2)cc1C(=O)N1CCC(C)CC1` was 1110 s; that for `Cc1c(Cl)cccc1Nc1c(-c2ccc(Cl)cc2)nc2cnccn12` was 1120 s; that for `Cc1ccc(NC(=O)Cn2c(=O)nc(N3CCC(C)CC3)c3ccccc32)c(C)c1` was 913 s. The value for `Cc1nn(CC(=O)NCCN(C)C)c(=O)c2cc(-c3ccccc3)nn12` was 625 s; that for `CCOC(=O)c1nc(NCCc2ccc(C)cc2)c2ccccc2n1` was 821 s. `Cc1cc(C)cc(N2C(=O)CN(S(C)(=O)=O)CC2(C)C(=O)NCc2ccc(Cl)cc2)c1` (stereo not given) registered an RP-LC retention time of 919 s.

`COc1cc(OC)cc(C(=O)Nc2ccc(N3CCN(C4CCCCC4)C3=O)nc2)c1`: the RP-LC retention time was 889 s. On to `CCCCC(=O)Nc1ccc2c(c1)nc(CN1CCN(C)CC1)n2C(C)C`, for which the RP-LC retention time stood at 575 s. The value for `Cc1cccc(NC(=O)Cn2c(=O)n(-c3ccc(F)cc3)c3ncccc32)c1C` was 880 s. `O=c1ccn(-c2ccc(F)c(F)c2)nc1-c1nc(-c2cccc(F)c2)no1` returned an RP-LC retention time of 923 s.

`Cc1ccc(NC(=O)Cn2ncc3c(c2=O)N(C)C(=O)CS3)c(Br)c1`: the RP-LC retention time turned out to be 714 s. Then `Cc1nc(-c2ccc(N3CCN(C(=O)c4ccc5c(c4)OCO5)CC3)nc2)sc1C`, with 813 s.

In turn, `COC(=O)C1=CN(c2ccc(F)c(Cl)c2)c2ccccc2S1(=O)=O` returned an RP-LC retention time of 910 s.

As to `Cc1ccc(Nc2nc(C)cc3nn(CC(=O)NC4CCCC4)c(=O)n23)cc1`, the RP-LC retention time turned out to be 640 s. Then `CCn1cc(C(=O)Nc2ccc(C)c(F)c2)c2cccnc21`, with 920 s. The molecule `COCCO[C@H]1C(=O)N(C2CCN(S(=O)(=O)c3cccnc3)CC2)[C@H]1c1ccncc1` had an RP-LC retention time of 583 s. Then `Cc1sc2ccn(Cc3ccc(F)cc3)c(=O)c2c1C(=O)NCc1cccs1`, with 945 s; and `Cc1oc(C2CCN(S(=O)(=O)CCc3ccccc3)CC2)nc1C(=O)N1CCCCC1`, with 943 s; and `CCCn1cc(CCNS(=O)(=O)c2cccc(Cl)c2)c2cccnc21`, with 804 s. `COCCN1C(=O)[C@H]2CN(Cc3ccc(OC)c(Br)c3)C[C@H]2C1=O` returned an RP-LC retention time of 616 s. The molecule `O=C(CSc1ccc(N2CCN(c3ccc(F)cc3)CC2)nn1)NCC1CCCO1` (stereo not given) had an RP-LC retention time of 689 s. The value for `Fc1ccc(CN2CCCCC2c2nc(-c3cnccn3)no2)cc1F` (stereo not given) was 849 s; that for `O=C(CN1C(=O)CC(c2ccco2)Sc2ccccc21)Nc1ccccc1C(F)(F)F` (stereo not given) was 899 s; that for `Nc1sc(SCC(=O)Nc2ccc3c(c2)OCO3)nc1-c1ccccc1` was 797 s.
